Experimental data published in US20250042875A1, “PESTICIDALLY ACTIVE PYRIDAZINONE COMPOUNDS” (SYNGENTA CROP PROTECTION AG, priority 2021, published 2025).

Experiments:
Assay type in all cases: in vivo
[1] = system: Chilo suppressalis; test: Activity against Chilo suppressalis (striped rice stemborer), artificial diet, L2 larvae; details: 144 h, application rate 200 ppm, 6 days after infestation, read-out: control in at least one of the three categories (mortality, anti-feedant effect, or growth inhibition)
Method: Example B1: Activity Against Chilo suppressalis (Striped Rice Stemborer)
24-well microtiter plates with artificial diet were treated with aqueous test solutions prepared from 10′000 ppm DMSO stock solutions by pipetting. After drying, the plates were infested with L2 larvae (6-8 per well). The samples were assessed for mortality, anti-feeding effect, and growth inhibition in comparison to untreated samples 6 days after infestation. Control of Chilo suppressalis by a test sample is given when at least one of the categories mortality, anti-feedant effect, and growth inhibition is higher than the untreated sample.

[2] = system: Plutella xylostella; test: Activity against Plutella xylostella (diamond back moth), artificial diet, eggs; details: 192 h, application rate 200 ppm, 8 days after infestation, read-out: control in at least one of the two categories (mortality or growth inhibition)
Method: Example B7: Activity Against Plutella xylostella (Diamond Back Moth)
24-well microtiter plates with artificial diet were treated with aqueous test solutions prepared from 10′000 ppm DMSO stock solutions by pipetting. After drying, Plutella eggs were pipetted through a plastic stencil onto a gel blotting paper and the plate was closed with it. The samples were assessed for mortality and growth inhibition in comparison to untreated samples 8 days after infestation.

[3] = system: Myzus persicae; test: Activity against Myzus persicae (green peach aphid), feeding/contact activity; details: 144 h, application rate 200 ppm, 6 days after infestation
Method: Example B5: Activity Against Myzus persicae (Green Peach Aphid). Feeding/Contact Activity
Sunflower leaf discs were placed onto agar in a 24-well microtiter plate and sprayed with aqueous test solutions prepared from 10′000 ppm DMSO stock solutions. After drying, the leaf discs were infested with an aphid population of mixed ages. The samples were assessed for mortality 6 days after infestation.

[4] = system: Euschistus heros; test: Activity against Euschistus heros (neotropical brown stink bug), soybean leaves, N2 nymphs; details: 120 h, application rate 200 ppm, 5 days after infestation, read-out: effect in at least one of the two categories (mortality or growth inhibition)
Method: Example B3: Activity Against Euschistus heros (Neotropical Brown Stink Bug)
Soybean leaves on agar in 24-well microtiter plates were sprayed with aqueous test solutions prepared from 10′000 ppm DMSO stock solutions. After drying the leaves were infested with N2 nymphs. The samples were assessed for mortality and growth inhibition in comparison to untreated samples 5 days after infestation.

[5] = system: Myzus persicae; test: Activity against Myzus persicae (green peach aphid), intrinsic activity; details: 120 h, test rate 12 ppm, 5 days after infestation
Text: Example B6: Activity Against Myzus persicae (Green Peach Aphid). Intrinsic Activity
Test compounds prepared from 10′000 ppm DMSO stock solutions were applied by pipette into 24-well microtiter plates and mixed with sucrose solution. The plates were closed with a stretched Parafilm. A plastic stencil with 24 holes was placed onto the plate and infested pea seedlings were placed directly on the Parafilm. The infested plate was closed with a gel blotting paper and another plastic stencil and then turned upside down. The samples were assessed for mortality 5 days after infestation.

[6] = system: Spodoptera littoralis; test: Activity against Spodoptera littoralis (Egyptian cotton leaf worm), cotton leaf discs, L1 larvae; details: foliar, 72 h, application rate 200 ppm, 3 days after infestation, read-out: control in at least one of the three categories (mortality, anti-feedant effect, or growth inhibition)
Method: Example B8: Activity Against Spodoptera littoralis (Egyptian Cotton Leaf Worm)
Cotton leaf discs were placed onto agar in 24-well microtiter plates and sprayed with aqueous test solutions prepared from 10′000 ppm DMSO stock solutions. After drying the leaf discs were infested with five L1 larvae. The samples were assessed for mortality, anti-feeding effect, and growth inhibition in comparison to untreated samples 3 days after infestation. Control of Spodoptera littoralis by a test sample is given when at least one of the categories mortality, anti-feedant effect, and growth inhibition is higher than the untreated sample.

[7] = system: Diabrotica balteata; test: Activity against Diabrotica balteata (corn root worm), maize sprouts, L2 larvae; details: 96 h, application rate 200 ppm, 4 days after infestation, read-out: control in at least one of the two categories (mortality or growth inhibition)
Method: Example B2: Activity Against Diabrotica Balteata (Corn Root Worm)
Maize sprouts placed onto an agar layer in 24-well microtiter plates were treated with aqueous test solutions prepared from 10′000 ppm DMSO stock solutions by spraying. After drying, the plates were infested with L2 larvae (6 to 10 per well). The samples were assessed for mortality and growth inhibition in comparison to untreated samples 4 days after infestation.

C[C@H](NC(=O)c1cc(C(F)(F)F)cc(C(F)(F)F)c1)c1ncnn1-c1ccc(=O)n(C)n1 [P1, N-[(1S)-1-[2-(1-methyl-6-oxo-pyridazin-3-yl)-1,2,4-triazol-3-yl]ethyl]-3,5-bis(trifluoromethyl)benzamide]
≥ 80%: percent control (mortality, anti-feedant effect or growth inhibition) at 200 ppm [1] | percent control (mortality or growth inhibition) at 200 ppm [2] | mortality at 200 ppm [3] | percent effect (mortality or growth inhibition) at 200 ppm [4] | mortality at 12 ppm [5] | percent control (mortality, anti-feedant effect or growth inhibition) at 200 ppm [6] | percent control (mortality or growth inhibition) at 200 ppm [7]

C[C@H](NC(=O)c1cc(C(F)(F)F)cc(S(=O)(=O)C(F)(F)F)c1)c1ncnn1-c1ccc(=O)n(C)n1 [P8, N-[(1S)-1-[2-(1-methyl-6-oxo-pyridazin-3-yl)-1,2,4-triazol-3-yl]ethyl]-3-(trifluoromethyl)-5-(trifluoromethylsulfonyl) benzamide]
≥ 80%: percent control (mortality, anti-feedant effect or growth inhibition) at 200 ppm [1] | percent control (mortality or growth inhibition) at 200 ppm [2] | mortality at 200 ppm [3] | percent effect (mortality or growth inhibition) at 200 ppm [4] | mortality at 12 ppm [5] | percent control (mortality, anti-feedant effect or growth inhibition) at 200 ppm [6] | percent control (mortality or growth inhibition) at 200 ppm [7]

CC(NC(=O)c1cc(Cl)cc(OC(F)(F)F)c1)c1nccnc1-c1ccc(=O)n(C)n1 (stereo not shown) [P11, 3-chloro-N-[1-[3-(1-methyl-6-oxopyridazin-3-yl)pyrazin-2-yl]ethyl]-5-(trifluoromethoxy) benzamide]
≥ 80%: percent control (mortality, anti-feedant effect or growth inhibition) at 200 ppm [1] | percent control (mortality or growth inhibition) at 200 ppm [2] | mortality at 200 ppm [3] | percent effect (mortality or growth inhibition) at 200 ppm [4] | mortality at 12 ppm [5] | percent control (mortality, anti-feedant effect or growth inhibition) at 200 ppm [6] | percent control (mortality or growth inhibition) at 200 ppm [7]

CC(NC(=O)c1cc(OC(F)F)cc(C(F)(F)F)c1)c1nccnc1-c1ccc(=O)n(C)n1 (stereo not shown) [P14, 3-(difluoromethoxy)-N-[1-[3-(1-methyl-6-oxo-pyridazin-3-yl)pyrazin-2-yl]ethyl]-5-(trifluoromethyl)benzamide]
≥ 80%: percent control (mortality, anti-feedant effect or growth inhibition) at 200 ppm [1] | percent control (mortality or growth inhibition) at 200 ppm [2] | mortality at 200 ppm [3] | percent effect (mortality or growth inhibition) at 200 ppm [4] | mortality at 12 ppm [5] | percent control (mortality, anti-feedant effect or growth inhibition) at 200 ppm [6] | percent control (mortality or growth inhibition) at 200 ppm [7]

CCn1nc(-n2ncnc2[C@H](C)NC(=O)c2cc(Cl)cc(C(F)(F)F)c2)ccc1=O [P16, 3-chloro-N-[(1S)-1-[2-(1-ethyl-6-oxo-pyridazin-3-yl)-1,2,4-triazol-3-yl]ethy]-5-(trifluoromethyl)benzamide]
≥ 80%: percent control (mortality, anti-feedant effect or growth inhibition) at 200 ppm [1] | percent control (mortality or growth inhibition) at 200 ppm [2] | mortality at 200 ppm [3] | percent effect (mortality or growth inhibition) at 200 ppm [4] | mortality at 12 ppm [5] | percent control (mortality, anti-feedant effect or growth inhibition) at 200 ppm [6] | percent control (mortality or growth inhibition) at 200 ppm [7]

C[C@H](NC(=O)c1cc(Cl)cc(S(=O)(=O)C(F)(F)F)c1)c1ncnn1-c1ccc(=O)n(C)n1 [P20, 3-chloro-N-[(1S)-1-[2-(1-methyl-6-oxo-pyridazin-3-yl)-1,2,4-triazol-3-yl]ethyl]-5-(trifluoromethylsulfonyl) benzamide]
≥ 80%: percent control (mortality, anti-feedant effect or growth inhibition) at 200 ppm [1] | percent control (mortality or growth inhibition) at 200 ppm [2] | mortality at 200 ppm [3] | percent effect (mortality or growth inhibition) at 200 ppm [4] | mortality at 12 ppm [5] | percent control (mortality, anti-feedant effect or growth inhibition) at 200 ppm [6] | percent control (mortality or growth inhibition) at 200 ppm [7]

C[C@@H](c1ncnn1C1=NN(C)C(=O)CC1)N(C)C(=O)c1cc(Cl)cc(C(F)(F)F)c1 [P23, 3-chloro-N-methyl-N-[(1S)-1-[2-(1-methyl-6-oxo-4,5-dihydropyridazin-3-yl)-1,2,4-triazol-3-yl]ethyl]-5-(trifluoromethyl)benzamide]
≥ 80%: percent control (mortality, anti-feedant effect or growth inhibition) at 200 ppm [1] | percent control (mortality or growth inhibition) at 200 ppm [2] | mortality at 200 ppm [3] | percent effect (mortality or growth inhibition) at 200 ppm [4] | mortality at 12 ppm [5] | percent control (mortality, anti-feedant effect or growth inhibition) at 200 ppm [6] | percent control (mortality or growth inhibition) at 200 ppm [7]

C[C@H](NC(=O)c1cc(Cl)cc(OC(F)(F)F)c1)c1ncnn1-c1ccc(=O)n(C)n1 [P26, 3-chloro-N-[(1S)-1-[2-(1-methyl-6-oxo-pyridazin-3-yl)-1,2,4-triazol-3-yl]ethyl]-5-(trifluoromethoxy)benzamide]
≥ 80%: percent control (mortality, anti-feedant effect or growth inhibition) at 200 ppm [1] | percent control (mortality or growth inhibition) at 200 ppm [2] | mortality at 200 ppm [3] | percent effect (mortality or growth inhibition) at 200 ppm [4] | mortality at 12 ppm [5] | percent control (mortality, anti-feedant effect or growth inhibition) at 200 ppm [6] | percent control (mortality or growth inhibition) at 200 ppm [7]

C[C@H](NC(=O)c1cc(Cl)cc(Br)c1)c1ncnn1-c1ccc(=O)n(C)n1 [P27, 3-bromo-5-chloro-N-[(1S)-1-[2-(1-methyl-6-oxo-pyridazin-3-yl)-1,2,4-triazol-3-yl]ethyl]benzamide]
≥ 80%: percent control (mortality, anti-feedant effect or growth inhibition) at 200 ppm [1] | percent control (mortality or growth inhibition) at 200 ppm [2] | mortality at 200 ppm [3] | percent effect (mortality or growth inhibition) at 200 ppm [4] | mortality at 12 ppm [5] | percent control (mortality, anti-feedant effect or growth inhibition) at 200 ppm [6] | percent control (mortality or growth inhibition) at 200 ppm [7]

C[C@H](NC(=O)c1cc(Cl)cc(I)c1)c1ncnn1-c1ccc(=O)n(C)n1 [P28, 3-chloro-5-iodo-N-[(1S)-1-[2-(1-methyl-6-oxo-pyridazin-3-yl)-1,2,4-triazol-3-yl]ethyl]benzamide]
≥ 80%: percent control (mortality, anti-feedant effect or growth inhibition) at 200 ppm [1] | percent control (mortality or growth inhibition) at 200 ppm [2] | mortality at 200 ppm [3] | percent effect (mortality or growth inhibition) at 200 ppm [4] | mortality at 12 ppm [5] | percent control (mortality, anti-feedant effect or growth inhibition) at 200 ppm [6] | percent control (mortality or growth inhibition) at 200 ppm [7]

C[C@H](NC(=O)c1cc(Cl)nc(C2(C#N)CC2)c1)c1ncnn1-c1ccc(=O)n(C)n1 [P35, 2-chloro-6-(1-cyanocyclopropyl)-N-[(1S)-1-[2-(1-methyl-6-oxo-pyridazin-3-yl)-1,2,4-triazol-3-yl]ethyl]pyridine-4-carboxamide]
≥ 80%: percent control (mortality, anti-feedant effect or growth inhibition) at 200 ppm [1] | percent control (mortality or growth inhibition) at 200 ppm [2] | mortality at 200 ppm [3] | percent effect (mortality or growth inhibition) at 200 ppm [4] | mortality at 12 ppm [5]

CC(NC(=O)c1cc(OC(F)F)cc(C2(C#N)CC2)c1)c1nccnc1-c1ccc(=O)n(C)n1 (stereo not shown) [P44, 3-(1-cyanocyclopropyl)-5-(difluoromethoxy)-N-[1-[3-(1-methyl-6-oxo-pyridazin-3-yl)pyrazin-2-yl]ethyl]benzamide]
≥ 80%: percent control (mortality, anti-feedant effect or growth inhibition) at 200 ppm [1] | percent control (mortality or growth inhibition) at 200 ppm [2] | mortality at 200 ppm [3] | percent effect (mortality or growth inhibition) at 200 ppm [4] | mortality at 12 ppm [5] | percent control (mortality, anti-feedant effect or growth inhibition) at 200 ppm [6]

C[C@H](NC(=O)c1cc(OC(F)F)cc(C2(C#N)CC2)c1)c1ncnn1-c1ccc(=O)n(C)n1 [P45, 3-(1-cyanocyclopropyl)-5-(difluoromethoxy)-N-[(1S)-1-[2-(1-methyl-6-oxo-pyridazin-3-yl)-1,2,4-triazol-3-yl]ethyl]benzamide]
≥ 80%: percent control (mortality, anti-feedant effect or growth inhibition) at 200 ppm [1] | mortality at 200 ppm [3] | percent effect (mortality or growth inhibition) at 200 ppm [4] | mortality at 12 ppm [5]
